The numbers were not newly measured in PubChem BioAssay AID1259410 (Chemical Carcinogenesis Research Information System (CCRIS), 2018), which cites them from elsewhere.

The data set concerns rodent tumor promotion studies, tumor incidence. In words: CCRIS tumor promotion studies. The conditions noted are these: Doses [Promoter]: 0.

For `C[C@]12CC[C@@H]3c4ccc(O)cc4CC[C@H]3[C@@H]1CC[C@@H]2O`, the outcome by setting is: (Carcinogen: N-ETHYL-N-NITROSOUREA, 759-73-9, Doses [Carcinogen]: 12.5 MG/KG IN POLYETHYLENE GLYCOL ONCE, 0.32 MG/PELLET IMPLANTED IN PERSISTENT ESTRUS MICE 1 WK PRIOR TO CARCINOGEN DOSE (STUDY DURATION: 16 WK), Route [Carcinogen]: INTRAUTERINE, Route [Promoter]: SUBCUTANEOUS, Species: MOUSE, Strain/Sex: CD-1/FEMALE) “uterus: adenocarcinoma”; (Carcinogen: N-ETHYL-N-NITROSOUREA, 759-73-9, Doses [Carcinogen]: 50 MG/KG BW IN POLYETHYLENE GLYCOL ONCE AT 10 WK OF AGE, 0.5% IN CHOLESTEROL PELLET AT 9 WK OF AGE, REMOVED AFTER 8 WK (STUDY DURATION: 15 WK), Route [Carcinogen]: INTRAUTERINE, Route [Promoter]: SUBCUTANEOUS IMPLANT, Species: MOUSE, Strain/Sex: CD-1/FEMALE) “uterus: tumor”; (Carcinogen: N-ETHYL-N-NITROSOUREA, 759-73-9, Doses [Carcinogen]: 50 MG/KG BW IN POLYETHYLENE GLYCOL ONCE AT 10 WK OF AGE, 0.5% IN CHOLESTEROL PELLET AT 11 WK OF AGE, REMOVED AFTER 8 WK (STUDY DURATION: 15 WK), Route [Carcinogen]: INTRAUTERINE, Route [Promoter]: SUBCUTANEOUS IMPLANT, Species: MOUSE, Strain/Sex: CD-1/FEMALE) “uterus: tumor”; (Carcinogen: N-ETHYL-N-NITROSOUREA, 759-73-9, Doses [Carcinogen]: 50 MG/KG BW IN POLYETHYLENE GLYCOL ONCE AT 10 WK OF AGE, 0.5% IN CHOLESTEROL PELLET AT 14 WK OF AGE, REMOVED AFTER 8 WK (STUDY DURATION: 15 WK), Route [Carcinogen]: INTRAUTERINE, Route [Promoter]: SUBCUTANEOUS IMPLANT, Species: MOUSE, Strain/Sex: CD-1/FEMALE) “uterus: tumor”; (Carcinogen: N-ETHYL-N-NITROSOUREA, 759-73-9, Doses [Carcinogen]: 50 MG/KG BW IN POLYETHYLENE GLYCOL ONCE AT 10 WK OF AGE, 0.5% IN CHOLESTEROL PELLET AT 17 WK OF AGE, REMOVED AFTER 8 WK (STUDY DURATION: 15 WK), Route [Carcinogen]: INTRAUTERINE, Route [Promoter]: SUBCUTANEOUS IMPLANT, Species: MOUSE, Strain/Sex: CD-1/FEMALE) “uterus: tumor”; (Carcinogen: N-METHYL-N'-NITRO-N-NITROSOGUANIDINE, 70-25-7, Doses [Carcinogen]: 50 PPM FOR 60 MIN, 20 PPM IN DIET BEGINNING 14 WK POST CARCINOGEN DOSE (STUDY DURATION: 12 MO), Route [Carcinogen]: IMMERSION, Route [Promoter]: ORAL, Species: FISH, Strain/Sex: RAINBOW TROUT) “liver: tumor”. Also, the outcome runs as follows: (Carcinogen: N-METHYL-N-NITROSOUREA, 684-93-5, Doses [Carcinogen]: 1 MG/100 G BW INJECTED INTO LEFT UTERINE TUBE ONCE, 25 PPM IN DIET FOR 29 WK BEGINNING 1 WK POST CARCINOGEN DOSE (STUDY DURATION: 30 WK), Route [Carcinogen]: INJECTION, Route [Promoter]: ORAL, Species: MOUSE, Strain/Sex: ICR/FEMALE) “uterus: adenocarcinoma”; (Carcinogen: N-METHYL-N-NITROSOUREA, 684-93-5, Doses [Carcinogen]: 40 MG/KG ONCE AT 50 D OF AGE, 2.5 MG PELLET IMPLANTED ON BACK OF GONADECTOMIZED RATS MAINTAINED ON LOW- IODINE DIET (STUDY DURATION: 30 WK), Route [Carcinogen]: INTRAVENOUS, Route [Promoter]: SUBCUTANEOUS IMPLANT, Species: RAT, Strain/Sex: LONG-EVANS/FEMALE) “thyroid: adenoma, carcinoma”; (Carcinogen: N-METHYL-N-NITROSOUREA, 684-93-5, Doses [Carcinogen]: 40 MG/KG ONCE AT 50 D OF AGE, 2.5 MG PELLET IMPLANTED ON BACK OF GONADECTOMIZED RATS MAINTAINED ON LOW- IODINE DIET (STUDY DURATION: 30 WK), Route [Carcinogen]: INTRAVENOUS, Route [Promoter]: SUBCUTANEOUS IMPLANT, Species: RAT, Strain/Sex: LONG-EVANS/MALE) “thyroid: adenoma, carcinoma”; (Doses [Carcinogen]: 0, 125 PPM IN STATIC SOLUTIONS OF WATER FOR 30 MIN ADMINISTERED TO 21 DAY OLD EMBRYOS, 20 PPM BEGINNING 6 WK POST CARCINOGEN TREATMENT AND CONTINUING FOR 5 WK FOLLOWED BY CONTROL DIET FOR 1 WK THEN 0, 10, 20 PPM BEGINNING 6 WK POST CARCINOGEN TREATMENT AND CONTINUING FOR 5 WK FOLLOWED BY CONTROL DIET FOR 1 WK THEN 0, 10, Route [Carcinogen]: IMMERSION, Route [Promoter]: ORAL, Species: FISH, Strain/Sex: MT. SHASTA RAINBOW TROUT) “liver: hepatocellular carcinoma or mixed carcinoma or hepatocellular adenoma”; (Doses [Carcinogen]: 0.025 PPM IN STATIC SOLUTIONS OF WATER FOR 30 MIN ADMINISTERED TO 21 DAY OLD EMBRYOS, 20 PPM BEGINNING 6 WK POST CARCINOGEN TREATMENT AND CONTINUING FOR 5 WK FOLLOWED BY CONTROL DIET FOR 1 WK THEN 0, 10, 20 PPM BEGINNING 6 WK POST CARCINOGEN TREATMENT AND CONTINUING FOR 5 WK FOLLOWED BY CONTROL DIET FOR 1 WK THEN 0, 10, Route [Carcinogen]: IMMERSION, Route [Promoter]: ORAL, Species: FISH, Strain/Sex: MT. SHASTA RAINBOW TROUT) “liver: hepatocellular carcinoma or mixed carcinoma”; (Doses [Carcinogen]: 0.25 PPM IN STATIC SOLUTIONS OF WATER FOR 30 MIN, 5 PPM IN DIET BEGINNING 5 WK POST CARCINOGEN TREATMENT AND ALTERNATED EVERY OTHER WK WITH CONTROL DIET FOR DURATION O, Route [Carcinogen]: IMMERSION, Route [Promoter]: ORAL, Species: FISH, Strain/Sex: MT. SHASTA RAINBOW TROUT) “liver: hepatocellular carcinoma or mixed carcinoma”. For the same compound, the outcome (Doses [Carcinogen]: 0.5 PPM FOR 30 MIN, 20 PPM IN DIET BEGINNING 14 WK POST CARCINOGEN DOSE (STUDY DURATION: 12 MO), Route [Carcinogen]: IMMERSION, Route [Promoter]: ORAL, Species: FISH, Strain/Sex: RAINBOW TROUT) is on record as “liver: tumor”.
For `O=C([O-])/C=C/C(=O)[O-].[Fe+2]`, the outcome reads like this: (Carcinogen: DIMETHYLHYDRAZINE, 540-73-8, Doses [Carcinogen]: 20 MG/KG 1/WK FOR 10 WK, 3.5% IN DIET FOR 10 WK BEGINNING POST CARCINOGEN TREATMENT (STUDY DURATION: 20 WK), Route [Carcinogen]: SUBCUTANEOUS, Route [Promoter]: ORAL, Species: MOUSE, Strain/Sex: NMRI/MALE) “colon/rectum: tumor”; (Carcinogen: DIMETHYLHYDRAZINE, 540-73-8, Doses [Carcinogen]: 20 MG/KG 1/WK FOR 10 WK, 3.5% IN DIET FOR 10 WK CONCURRENTLY WITH CARCINOGEN TREATMENT (STUDY DURATION: 20 WK), Route [Carcinogen]: SUBCUTANEOUS, Route [Promoter]: ORAL, Species: MOUSE, Strain/Sex: NMRI/MALE) “colon/rectum: tumor”.
In the case of `CN(C)CCCN1c2ccccc2Sc2ccc(Cl)cc21`, under “Carcinogen: UV IRRADIATION, Doses [Carcinogen]: 0.53 J/CM2 INCREASED BY 20% EVERY 2 WK TO 1.60 J/CM2 AND MAINTAINED AT 1.60 J/CM2 UNTIL DEATH, ADMINISTERED 5 D/WK FOR 1, 15 UG/G BEGINNING 2 WK POST FIRST CARCINOGEN DOSE ADMINISTERED 2 HR PRIOR TO EACH CARCINOGEN DOSE (STUDY DURATION: 30, Route [Carcinogen]: DERMAL, Route [Promoter]: INTRAPERITONEAL, Species: MOUSE, Strain/Sex: SKH/HRL/FEMALE”, the outcome is “skin: tumor”.
As to `CC(C)C[C@H]1C(=O)N2CCC[C@H]2[C@]2(O)O[C@](NC(=O)[C@@H]3C=C4c5cccc6[nH]c(Br)c(c56)C[C@H]4N(C)C3)(C(C)C)C(=O)N12`, the outcome runs as follows: (Carcinogen: 3-METHYLCHOLANTHRENE, 56-49-5, Doses [Carcinogen]: 1.5 MG IN TRICAPRYLIN ONCE, 3 MG/KG/D IN 50% ETHANOL FOR 16 CONSECUTIVE DAYS BEGINNING 2 D PRIOR TO CARCINOGEN DOSE AND AGAIN FOR 14 D BEGINNING, Route [Carcinogen]: SUBCUTANEOUS, Route [Promoter]: SUBCUTANEOUS, Species: RAT, Strain/Sex: SPRAGUE-DAWLEY/MALE) “injection site: tumor”; (Carcinogen: N-METHYL-N'-NITRO-N-NITROSOGUANIDINE, 70-25-7, Doses [Carcinogen]: 40 ML OF A 50 UG/ML DEIONIZED WATER SOLUTION 1/2 D FOR 25 WK (AVERAGE TOTAL DOSE 170 MG), 1, 2, MG/KG IN 0.1 ML/KG OLIVE OIL 1/2 D FOR 25 WK ADMINISTERED POST CARCINOGEN (STUDY DURATION: 52 WK), 1, 2, MG/KG IN 0.1 ML/KG OLIVE OIL 1/2 D FOR 25 WK ADMINISTERED POST CARCINOGEN (STUDY DURATION: 52 WK), Route [Carcinogen]: ORAL, Route [Promoter]: SUBCUTANEOUS, Species: RAT, Strain/Sex: WISTAR/MALE) “glandular stomach: adenocarcinoma”.
